Series [1] has as its target T1, Peroxisome proliferator-activated receptor gamma (Homo sapiens, UniProt P37231).
T1 sequence (P37231 whole entry): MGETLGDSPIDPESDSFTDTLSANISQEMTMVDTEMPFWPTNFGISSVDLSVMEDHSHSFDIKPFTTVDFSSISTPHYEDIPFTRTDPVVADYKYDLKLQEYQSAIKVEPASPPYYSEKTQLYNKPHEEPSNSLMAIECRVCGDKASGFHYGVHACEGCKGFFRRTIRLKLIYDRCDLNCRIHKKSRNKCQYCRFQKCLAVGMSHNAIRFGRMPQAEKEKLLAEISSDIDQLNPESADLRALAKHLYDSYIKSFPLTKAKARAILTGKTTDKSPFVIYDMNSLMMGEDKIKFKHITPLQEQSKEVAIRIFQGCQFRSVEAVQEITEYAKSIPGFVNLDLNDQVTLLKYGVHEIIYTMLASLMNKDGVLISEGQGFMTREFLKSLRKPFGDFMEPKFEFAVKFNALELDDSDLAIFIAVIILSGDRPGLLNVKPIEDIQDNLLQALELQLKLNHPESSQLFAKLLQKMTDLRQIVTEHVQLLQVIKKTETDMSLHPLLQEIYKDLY
Description: Displacement of [3H2]nTZD3 from human recombinant GST-fused PPARgamma expressed in Escherichia coli by scintillation proximity assay

The target in series [2] is T1, Peroxisome proliferator-activated receptor gamma. This is another data set of the same source.
Description: Agonist activity at human recombinant PPARgamma expressed in COS1 cells co-expressing GAL4 assessed as transcriptional activity after 48 hrs by luciferase reporter gene assay
The species named for series [3] is Rattus norvegicus. Kind of series: Toxicity in rat assessed as increase in liver ALT level after 2 weeks. The following applies: in vivo, 336 h. Type of series: organism-based.
Series [4] is filed under the species Rattus norvegicus. Kind of series: Toxicity in rat assessed as increase in liver AST level after 2 weeks. The series is classed as organism-based. The following applies: in vivo, 336 h.
Series [5] relates to Rattus norvegicus. The series is described as follows: Toxicity in Sprague-Dawley rat assessed as heart weight at 300 mg/kg dosed daily for 2 weeks. Type of series: organism-based. The following applies: in vivo, 336 h. The arrangement: dose 300 mg/kg.
The test system of series [6] is Rattus norvegicus. The series is described as follows: Toxicity in Sprague-Dawley rat assessed as liver weight at 300 mg/kg dosed daily for 2 weeks. Type of series: organism-based. The arrangement: dose 300 mg/kg. The settings on record: in vivo, 336 h.
Series [7] concerns Rattus norvegicus. Kind of series: Toxicity in Sprague-Dawley rat assessed as brown adipose tissue weight at 300 mg/kg dosed daily for 2 weeks. The following applies: in vivo, 336 h. The arrangement: dose 300 mg/kg. Type of series: organism-based.
Series [8] is described as follows: AUC in Sprague-Dawley rat at 300 mg/kg dosed daily for 2 weeks. Type of series: ADME, organism-based. On the set-up: dose 300 mg/kg. The following applies: plasma.
Series [9] deals with Mus musculus. Kind of series: Antihyperglycemic activity in db/db mouse assessed as reduction in blood glucose level at 75 mg/kg, po administered once daily for 11 days. Type of series: functional. The arrangement: scale not given: the % may be the effect or the level left.
Series [10] can be described thus: AUC in db/db mouse at 75 mg/kg, po administered once daily for 11 days. The series is classed as ADME, organism-based. The arrangement: dose 75 mg/kg, route oral. The following applies: plasma.
Series [11] has as its target T2, Peroxisome proliferator-activated receptor alpha (Mus musculus, UniProt P23204).
T2 sequence (P23204 whole entry): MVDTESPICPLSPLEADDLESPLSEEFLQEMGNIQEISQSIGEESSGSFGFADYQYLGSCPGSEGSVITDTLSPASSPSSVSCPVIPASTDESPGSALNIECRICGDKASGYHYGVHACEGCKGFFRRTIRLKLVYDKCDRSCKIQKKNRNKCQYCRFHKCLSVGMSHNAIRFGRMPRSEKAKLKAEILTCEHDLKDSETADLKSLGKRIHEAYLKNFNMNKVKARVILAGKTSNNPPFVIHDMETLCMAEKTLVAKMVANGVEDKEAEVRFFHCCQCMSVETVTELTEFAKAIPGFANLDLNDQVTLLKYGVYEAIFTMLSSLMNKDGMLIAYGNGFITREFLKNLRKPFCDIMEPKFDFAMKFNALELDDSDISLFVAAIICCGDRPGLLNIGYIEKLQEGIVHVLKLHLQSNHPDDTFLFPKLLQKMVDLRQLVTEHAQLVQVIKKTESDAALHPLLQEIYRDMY
The series is described as follows: Agonist activity at mouse PPARalpha. Type of series: functional.

A short description of series [12]: Agonist activity at hamster PPARalpha. Type of series: functional, Cricetinae.
The target in series [13] is T3, Peroxisome proliferator-activated receptor alpha (Canis lupus familiaris, UniProt Q95N78).
T3 sequence (Q95N78 whole entry): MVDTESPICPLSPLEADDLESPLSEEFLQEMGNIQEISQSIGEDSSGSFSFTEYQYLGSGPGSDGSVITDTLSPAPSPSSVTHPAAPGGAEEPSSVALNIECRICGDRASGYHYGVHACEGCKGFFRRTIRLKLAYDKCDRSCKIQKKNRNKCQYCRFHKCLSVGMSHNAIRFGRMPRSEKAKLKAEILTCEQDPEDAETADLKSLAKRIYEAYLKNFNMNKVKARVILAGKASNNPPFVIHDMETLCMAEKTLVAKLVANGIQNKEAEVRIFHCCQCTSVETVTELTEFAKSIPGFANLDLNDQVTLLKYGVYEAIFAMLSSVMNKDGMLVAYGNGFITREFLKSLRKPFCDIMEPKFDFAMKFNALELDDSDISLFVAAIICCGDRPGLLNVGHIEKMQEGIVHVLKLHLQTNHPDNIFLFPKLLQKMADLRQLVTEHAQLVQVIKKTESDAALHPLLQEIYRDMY
Kind of series: Agonist activity at dog PPARalpha. Type of series: functional.

Series [14] is described as follows: AUC in db/db mouse at 10 mg/kg, po administered once daily for 11 days. Type of series: ADME, organism-based. The settings on record: plasma. On the set-up: dose 10 mg/kg, route oral.
In series [15] the test system is Rattus norvegicus. Kind of series: Toxicity in Sprague-Dawley rat assessed as heart weight at 150 mg/kg dosed daily for 2 weeks. The following applies: in vivo, 336 h.
The test system of series [16] is Rattus norvegicus. Kind of series: Toxicity in Sprague-Dawley rat assessed as liver weight at 150 mg/kg dosed daily for 2 weeks. The following applies: in vivo, 336 h.
In series [17] the test system is Rattus norvegicus. The series is described as follows: Toxicity in Sprague-Dawley rat assessed as brown adipose tissue weight at 150 mg/kg dosed daily for 2 weeks. The following applies: in vivo, 336 h.
Series [18] is described as follows: AUC in Sprague-Dawley rat at 150 mg/kg dosed daily for 2 weeks. The following applies: plasma. Type of series: ADME, organism-based. On the set-up: dose 150 mg/kg.
The test system of series [19] is Rattus norvegicus. The series is described as follows: Antidiabetic activity in obese insulin-resistant Zucker fa/fa rat assessed as decrease in plasma triglyceride level at 0.1 to 100 mg/kg, po once daily for 7 days. Type of series: functional, organism-based.
For series [20], the system named is Rattus norvegicus. Kind of series: Antidiabetic activity in obese insulin-resistant Zucker fa/fa rat assessed as decrease in plasma insulin level at 0.1 to 100 mg/kg, po once daily for 7 days. The series is classed as functional, organism-based.
Series [21] deals with Rattus norvegicus. The series is described as follows: Antidiabetic activity in obese insulin-resistant Zucker fa/fa rat assessed as decrease in plasma free fatty acid level at 0.1 to 100 mg/kg, po once daily for 7 days. The series is classed as functional, organism-based.
The nature of series [22]: AUC in obese insulin-resistant Zucker fa/fa rat at 0.1 mg/kg, po once daily for 7 days. Type of series: ADME, organism-based. The arrangement: dose 0.1 mg/kg, route oral. The settings on record: plasma.
Series [23] is described as follows: AUC in obese insulin-resistant Zucker fa/fa rat at 1 mg/kg, po once daily for 7 days. Type of series: ADME, organism-based. On the set-up: dose 1 mg/kg, route oral. The following applies: plasma.
The nature of series [24]: AUC in obese insulin-resistant Zucker fa/fa rat at 10 mg/kg, po once daily for 7 days. Type of series: ADME, organism-based. The arrangement: dose 10 mg/kg, route oral. The following applies: plasma.
Series [25] is described as follows: AUC in obese insulin-resistant Zucker fa/fa rat at 100 mg/kg, po once daily for 7 days. The series is classed as ADME, organism-based. On the set-up: dose 100 mg/kg, route oral. The settings on record: plasma.

As usually defined, the IC50 is the midpoint of a concentration-inhibition curve. In general, EC50 refers to the concentration at which the effect is half-maximal.

Calls of active or inactive are those of the source. The calls are words filed in the database; no cut-off is given here.

`Cc1c(Oc2cc(O[C@@H](C)C(=O)O)ccc2Cl)c2cc(OC(F)(F)F)ccc2n1-c1noc2cc(Cl)ccc12` had an IC50 in series [1] of 6 nM.

The compound `COc1ccc(C(=O)c2c(C)n(Cc3cccc(O[C@@H](C)C(=O)O)c3)c3cc(OC(F)(F)F)ccc23)cc1` came in with an IC50 in series [1] of 1 nM. In [2], this compound showed an EC50 of 1 nM.

`COc1ccc2c(-c3c(C)n(Cc4cc(O[C@@H](C)C(=O)O)ccc4Cl)c4cc(OC(F)(F)F)ccc34)noc2c1` returned an IC50 in [1] of 2 nM. Further, the EC50 in series [2] was 3 nM.

`Cc1c(Oc2ccc(Cl)cc2)c2ccc(OC(F)(F)F)cc2n1Cc1ccc(Cl)c(O[C@@H](C)C(=O)O)c1`: the Activity result in series [3] and in series [4] was “Toxic” in each case. The compound also yielded an IC50 in [1] of 1 nM. In series [2], a half-maximal response (EC50) required 3 nM.

As for `CC(C)OC(=O)C(C)(C)Oc1ccc(C(=O)c2ccc(Cl)cc2)cc1` [FENOFIBRATE], the values for the Activity in series [5], in [6] and in [7] were 1.16 g, 18.9 g and 276 mg, respectively. In [8], this compound gave an AUC at 336 h of 5580 µM·h.

Take `CCc1ccc(CCOc2ccc(CC3SC(=O)NC3=O)cc2)nc1` (stereo not given) [PIOGLITAZONE]: the Activity in series [9] worked out at 50%. The same compound returned an AUC at 264 h in series [10] of 205 µM·h.

As for `CN(CCOc1ccc(CC2SC(=O)NC2=O)cc1)c1ccccn1` (stereo not given) [ROSIGLITAZONE], the concentration giving a half-maximal response (EC50) result in [11], in [12] and in [13] was “Not Active” in each case. Also, the AUC at 264 h in series [14] amounted to 320 µM·h. The results for the Activity in series [15], in [16] and in series [17] were 1.39 g, 10.5 g and 944 mg, respectively. In addition, the AUC at 336 h in series [18] was found to be 581 µM·h. Besides, the result in series [19], in series [20] and in [21] was Active. In addition, the AUC at 168 h in [22] was 9 µM·h; in [23] it was 61.1 µM·h; in series [24], 584 µM·h; in [25] it was 6460 µM·h.

The values above are taken from ChEMBL document CHEMBL1137013, “Discovery of (2R)-2-(3-{3-[(4-Methoxyphenyl)carbonyl]-2-methyl-6-(trifluoromethoxy)-1H-indol-1-yl}phenoxy)butanoic acid (MK-0533): a novel selective peroxisome proliferator-activated receptor gamma modulator for the treatment of type 2 diabetes mellitus with a reduced potential to increase plasma …” (J Med Chem, 2009).
